# Results as given in the supplement of paper PMC10307832.
# Tests used:
# Test in all cases: relative viability (nuclei count vs DMSO), 5 days (fraction); higher = more cells survive
# NCI-H1734 = tested on: NCI-H1734
# Method in brief: (§1)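 Lung cancer cell lines, seeded in 1536-well plates, were treated the following day by pin tool with a single drug or with five library-drug doses (not always all listed) in √10 steps on top of a fixed anchor-drug dose. Cells were fixed and nuclei stained in one step after 5 days, and nuclei were counted. Relative viability is the nuclei count for treated wells divided by that for vehicle wells, reported as medians of duplicate plates.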
# HCC-15 = tested on: HCC-15
# Method in brief: as §1
# NCI-H520 = tested on: NCI-H520
# Method in brief: as §1
# H3255 = tested on: H3255
# Method in brief: as §1
# HCC-827 = tested on: HCC-827
# Method in brief: as §1
# CAL-12T = tested on: CAL-12T
# Method in brief: as §1
# NCI-H322M = tested on: NCI-H322M
# Method in brief: as §1
# LK-2 = tested on: LK-2
# Method in brief: as §1
# EKVX = tested on: EKVX
# Method in brief: as §1
# SK-MES-1 = tested on: SK-MES-1
# Method in brief: as §1
# NCI-H1437 = tested on: NCI-H1437
# Method in brief: as §1
# PC-3 [JPC-3] = tested on: PC-3 [JPC-3]
# Method in brief: as §1
# PC-14 = tested on: PC-14
# Method in brief: as §1
# NCI-H2228 = tested on: NCI-H2228
# Method in brief: as §1
# ABC-1 = tested on: ABC-1
# Method in brief: as §1
# NCI-H1651 = tested on: NCI-H1651
# Method in brief: as §1
# NCI-H661 = tested on: NCI-H661
# Method in brief: as §1
# RERF-LC-KJ = tested on: RERF-LC-KJ
# Method in brief: as §1
# NCI-H1355 = tested on: NCI-H1355
# Method in brief: as §1
# NCI-H1650 = tested on: NCI-H1650
# Method in brief: as §1
# SW 1573 = tested on: SW 1573
# Method in brief: as §1
# COR-L23 = tested on: COR-L23
# Method in brief: as §1
# NCI-H2405 = tested on: NCI-H2405
# Method in brief: as §1
compound,measurement,setting,value
C[C@@H]1CN(CC(=O)Nc2ccc3c(c2)Cc2cccc(-c4cc(=O)cc(N5CCOCC5)o4)c2S3)C[C@H](C)O1 + Cc1cc(Nc2cc(N3CCN(C)CC3)nc(Sc3ccc(NC(=O)C4CC4)cc3)n2)n[nH]1 [Tozasertib] (partner 0.1 µM),relative viability,NCI-H1734; first compound 0.04 µM,0.286
same,relative viability,NCI-H1734; first compound 0.1265 µM,0.238
same,relative viability,NCI-H1734; first compound 0.4 µM,0.261
same,relative viability,NCI-H1734; first compound 4 µM,0.205
same,relative viability,HCC-15; first compound 0.04 µM,0.334
same,relative viability,HCC-15; first compound 0.1265 µM,0.372
same,relative viability,HCC-15; first compound 0.4 µM,0.385
same,relative viability,HCC-15; first compound 4 µM,0.151
same,relative viability,NCI-H520; first compound 0.04 µM,0.474
same,relative viability,NCI-H520; first compound 0.1265 µM,0.454
same,relative viability,NCI-H520; first compound 0.4 µM,0.356
same,relative viability,NCI-H520; first compound 4 µM,0.448
same,relative viability,H3255; first compound 0.04 µM,0.694
same,relative viability,H3255; first compound 0.1265 µM,0.606
same,relative viability,H3255; first compound 0.4 µM,0.625
same,relative viability,H3255; first compound 4 µM,0.492
same,relative viability,HCC-827; first compound 0.04 µM,0.451
same,relative viability,HCC-827; first compound 0.1265 µM,0.396
same,relative viability,HCC-827; first compound 0.4 µM,0.41
same,relative viability,HCC-827; first compound 4 µM,0.427
same,relative viability,CAL-12T; first compound 0.04 µM,0.306
same,relative viability,CAL-12T; first compound 0.1265 µM,0.366
same,relative viability,CAL-12T; first compound 0.4 µM,0.296
same,relative viability,CAL-12T; first compound 4 µM,0.217
same,relative viability,NCI-H322M; first compound 0.04 µM,0.489
same,relative viability,NCI-H322M; first compound 0.1265 µM,0.486
same,relative viability,NCI-H322M; first compound 0.4 µM,0.449
same,relative viability,NCI-H322M; first compound 4 µM,0.432
same,relative viability,LK-2; first compound 0.1265 µM,0.174
same,relative viability,LK-2; first compound 0.4 µM,0.185
same,relative viability,LK-2; first compound 4 µM,0.17
same,relative viability,EKVX; first compound 0.04 µM,0.389
same,relative viability,EKVX; first compound 0.1265 µM,0.44
same,relative viability,EKVX; first compound 0.4 µM,0.432
same,relative viability,EKVX; first compound 4 µM,0.305
same,relative viability,SK-MES-1; first compound 0.04 µM,1.09
same,relative viability,SK-MES-1; first compound 0.1265 µM,0.852
same,relative viability,SK-MES-1; first compound 0.4 µM,0.826
same,relative viability,SK-MES-1; first compound 4 µM,0.647
same,relative viability,NCI-H1437; first compound 0.04 µM,0.379
same,relative viability,NCI-H1437; first compound 0.1265 µM,0.354
same,relative viability,NCI-H1437; first compound 0.4 µM,0.395
same,relative viability,NCI-H1437; first compound 4 µM,0.365
same,relative viability,PC-3 [JPC-3]; first compound 0.04 µM,0.883
same,relative viability,PC-3 [JPC-3]; first compound 0.1265 µM,0.862
same,relative viability,PC-3 [JPC-3]; first compound 0.4 µM,0.871
same,relative viability,PC-3 [JPC-3]; first compound 4 µM,0.74
same,relative viability,PC-14; first compound 0.04 µM,0.451
same,relative viability,PC-14; first compound 0.1265 µM,0.562
same,relative viability,PC-14; first compound 0.4 µM,0.579
same,relative viability,PC-14; first compound 4 µM,0.482
same,relative viability,NCI-H2228; first compound 0.04 µM,0.235
same,relative viability,NCI-H2228; first compound 0.1265 µM,0.214
same,relative viability,NCI-H2228; first compound 0.4 µM,0.245
same,relative viability,NCI-H2228; first compound 4 µM,0.162
same,relative viability,ABC-1; first compound 0.1265 µM,0.159
same,relative viability,ABC-1; first compound 0.4 µM,0.184
same,relative viability,ABC-1; first compound 4 µM,0.16
same,relative viability,NCI-H1651; first compound 0.04 µM,0.683
same,relative viability,NCI-H1651; first compound 0.1265 µM,0.609
same,relative viability,NCI-H1651; first compound 0.4 µM,0.602
same,relative viability,NCI-H1651; first compound 4 µM,0.535
same,relative viability,NCI-H661; first compound 0.04 µM,0.345
same,relative viability,NCI-H661; first compound 0.1265 µM,0.366
same,relative viability,NCI-H661; first compound 0.4 µM,0.355
same,relative viability,NCI-H661; first compound 4 µM,0.366
same,relative viability,RERF-LC-KJ; first compound 0.04 µM,0.545
same,relative viability,RERF-LC-KJ; first compound 0.1265 µM,0.48
same,relative viability,RERF-LC-KJ; first compound 0.4 µM,0.496
same,relative viability,RERF-LC-KJ; first compound 4 µM,0.351
same,relative viability,NCI-H1355; first compound 0.04 µM,0.361
same,relative viability,NCI-H1355; first compound 0.1265 µM,0.514
same,relative viability,NCI-H1355; first compound 0.4 µM,0.461
same,relative viability,NCI-H1355; first compound 4 µM,0.42
same,relative viability,NCI-H1650; first compound 0.04 µM,0.433
same,relative viability,NCI-H1650; first compound 0.1265 µM,0.375
same,relative viability,NCI-H1650; first compound 0.4 µM,0.344
same,relative viability,NCI-H1650; first compound 4 µM,0.239
same,relative viability,SW 1573; first compound 0.04 µM,0.224
same,relative viability,SW 1573; first compound 0.1265 µM,0.18
same,relative viability,SW 1573; first compound 0.4 µM,0.23
same,relative viability,SW 1573; first compound 4 µM,0.231
same,relative viability,COR-L23; first compound 0.04 µM,0.199
same,relative viability,COR-L23; first compound 0.1265 µM,0.218
same,relative viability,COR-L23; first compound 0.4 µM,0.159
same,relative viability,COR-L23; first compound 4 µM,0.137
same,relative viability,NCI-H2405; first compound 0.04 µM,0.676
same,relative viability,NCI-H2405; first compound 0.1265 µM,0.766
same,relative viability,NCI-H2405; first compound 0.4 µM,0.703
same,relative viability,NCI-H2405; first compound 4 µM,0.695
